Target: T1, HpDnaB (Helicobacter pylori, UniProt O25916)
T1 construct: gene dnaB; recombinant in E. coli BL21 Star (DE3), pACYC-duet1 (NdeI/XhoI); monomer 59 kDa; closed hexamer proposed with DNA, dodecamer in crystal 4ZC0
T1 sequence (O25916 1-488): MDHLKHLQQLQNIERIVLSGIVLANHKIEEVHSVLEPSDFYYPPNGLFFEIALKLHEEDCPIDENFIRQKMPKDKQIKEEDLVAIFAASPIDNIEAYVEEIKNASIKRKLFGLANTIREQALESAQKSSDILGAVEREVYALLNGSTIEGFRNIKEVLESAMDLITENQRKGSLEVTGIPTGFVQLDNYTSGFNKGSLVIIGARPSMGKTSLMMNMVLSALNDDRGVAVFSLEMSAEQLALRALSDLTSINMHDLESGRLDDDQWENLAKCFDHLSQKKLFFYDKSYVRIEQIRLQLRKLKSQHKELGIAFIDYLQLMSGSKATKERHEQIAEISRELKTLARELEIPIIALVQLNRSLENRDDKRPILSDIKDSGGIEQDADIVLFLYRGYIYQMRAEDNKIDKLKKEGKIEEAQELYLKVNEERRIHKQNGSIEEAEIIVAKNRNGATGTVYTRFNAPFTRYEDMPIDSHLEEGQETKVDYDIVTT
Experiment: proton-detected […],1H solid-state NMR (hPH, […] kHz MAS); Mn2+ EDNMR/ENDOR
Type: binding
Conditions: as ADP:AlF4- complex; Mg2+ and (dT)20 for hPH NMR, Mn2+ without DNA for EPR; pH 7.5; Walker A nucleotide site (S206, G208, K209, T210, S211)

With `Nc1ncnc2c1ncn2[C@@H]1O[C@H](COP(=O)(O)OP(=O)(O)O)[C@@H](O)[C@H]1O` [ADP] the “proton-detected 31P,1H solid-state NMR (hPH, 105 kHz MAS); Mn2+ EDNMR/ENDOR” value was “spatial correlations between Pβ of ADP and S206, G208, K209 and T210”.
